Source: patent US8227433B2, “Use of inhibitors and antisense oligonucleotides of BTK for treating proliferative mastocytosis” (Centre National de la Recherche Scientifique (CNRS), priority 2003, dated 2012)

Key:
HMC-1 cells = assay: Tumor size in nude mice injected with HMC-1 cells expressing the BTK antisense; assay type: in vivo; settings: nude mice injected with 2 millions HMC-1 cells, tumor size assessed few weeks after injection, FIG. 4
Description: We used nude mice, which have been injected with 2 millions HMC-1 cells.

HMC1 cells [1] = assay: G418-resistant colony formation of HMC1 cells infected with LNCX or LNCX-AS BTK virus; assay type: cell-based
Method: HMC1 cells seeded the day before in 6 wells plates (10^5 cells/ well) are infected with increasing doses of LNCX or LNCX-AS BTK virus. 24 hours after infection, cells are washed in PBS and cultured in medium containing geneticine (1.2 mg/ml). After one week, we observed the formation of colonies resistant to geneticine and whose number depends on the quantity of virus used for infection. When comparing the number of colonies of HMC1 resisting to G418 obtained from cells infected with the LNCX or LNCX-AS BTK virus, we observed independently of the virus concentration used, a lower number of colonies of cells infected with LNCX-AS BTK relative to the number of colonies of cells infected with LNCX. For equivalent quantity of virus, we obtained between 5 to 10 fold less colonies of HMC resisting to G418 by infecting with the LNCX-AS BTK virus compared to the infection with the LNCX “empty”.
The 10 to 20% surviving clones are those for which the antisense expression level is weak thereby maintaining a BTK expression level compatible with cellular survival.

BTK = BTK expression in HMC-1 clones that integrated the retrovirus vector coding for the BTK antisense RNA; assay type: cell-based, human; settings: HMC-1 target cells which integrated the vector; 4 clones; FIG. 3
Description: 2.1 We used antisense RNA to inhibit the expression of BTK in HMC-1, which is resistant to apoptosis. In this regard, we have constructed a retrovirus vector coding for an antisense RNA containing 32 nucleotides directed to the sequence comprised in the AUG region of the BTK gene (SEQ ID No 1).
Target cells, which integrated this vector, show a significant decrease in the expression of BTK. Regarding 4 clones, we have noted a decrease of about 50% of the expression of the BTK (see FIG. 3).

HMC1 cells [2] = assay: Determination of HMC1 cells sensibility to G418 (lethal geneticine dose); assay type: cell-based, human; settings: 6 wells plate; 0 to 1.4 mg/ml tested; colonies visualized one week after seeding
Method: To determine, the lethal geneticine dose for HMC1, cells were seeded in 6 wells plate (10^5 cells/wells) in presence of increasing concentration of geneticine (0; 0.6; 0.8; 1; 1.2; 1.4 mg/ml). One week after seeding, colonies are visualized by crystal purple coloration. It appears that the effective dose was 1.2 mg/ml geneticine in the culture Media. Indeed, at lower doses, we observed development of HMC1 colonies. • -Infection of HMC1 Cells

| Compound | anti-tumoral effect (size of the tumors) (HMC-1 cells) | anti-tumoral effect (size of the tumors) (HMC-1 cells; listed as antisens oligonucleotide directed against BTK) | cellular mortality (HMC1 cells [1]; HMC1 cells, decrease of BTK expression by the antisense RNA) [%] | surviving clones (HMC1 cells [1]; HMC1 clones with weak antisense expression level) [%] | decrease of the expression of the BTK (BTK) | lethal (effective) geneticine dose for HMC1 (HMC1 cells [2]) [mg/mL] |
| --- | --- | --- | --- | --- | --- | --- |
| 5′ AGAATCACTGCGGCCATAGCTTCTTCTTTCTG 3′ (chemistry not given here) [BTK antisense] | significant anti-tumoral effects | significantly decrease the size of tumors | 80 to 90 | 10 to 20 | about 50% |  |
| CN[C@@H]1[C@@H](O)[C@@H](O[C@@H]2[C@@H](O)[C@H](O[C@H]3O[C@H]([C@@H](C)O)[C@@H](O)[C@H](O)[C@H]3N)[C@@H](N)C[C@H]2N)OC[C@]1(C)O [geneticine] |  |  |  |  |  | 1.2 |
